Results reported in patent US20050256034A1, “Dioxolane analogs for improved inter-cellular delivery” (priority 2000, published 2005).
Where two headings read alike, the source gives them in different places.

Assay: 3H-Thymidine Incorporation Assay (24 hr drug, wash, another 48 hr; 72 hr assay)
Format: cell-based
Settings: for Factor (Resistance Factor = Ratio of dCK- on Wild-type CCRF-CEM) / Resistance Factor = Ratio of dCK- on Wild-type CCRF-CEM: ratio of IC50 CEM/dCK- to IC50 CCRF-CEM; for Factor (Resistance Factor = Ratio of dCK- on Wild-type CCRF-CEM): 24 h exposure; for IC50: 24 hr exposure to drug, wash, another 48 hr
[1] = CCRF-CEM, read-out: IC50 (3H-TdR incorporation at 72 hr) CCRF-CEM 24 h, CCRF-CEM T-cell leukemia
[2] = CCRF-CEM, read-out: IC50 (3H-TdR incorporation at 72 hr) CEM/dCK- 24 h, CEM/dCK- (CCRF-CEM deoxycytidine kinase-deficient)
[3] = MCF7, read-out: IC50 (3H-TdR incorporation at 72 hr) MCF-7 24 h, MCF-7 human breast carcinoma
[4] = NCI-H460, read-out: IC50 (3H-TdR incorporation at 72 hr) H-460 24 h, H-460 human lung carcinoma
[5] = SF-268, read-out: IC50 (3H-TdR incorporation at 72 hr) SF-268 24 h, SF-268 human central nervous system tumor
[6] = read-out: IC50 (3H-TdR incorporation at 72 hr) H-460 24 h, H-460 human lung carcinoma
[7] = read-out: IC50 (3H-TdR incorporation at 72 hr) MCF-7 24 h, MCF-7 human breast carcinoma

CC(C)c1ccc(NC(=O)OC[C@H]2OC[C@@H](n3ccc(NC(=O)OCc4ccccc4)nc3=O)O2)cc1 [Compound 124, (1-[2-(4-ISOPROPYL-PHENYL- CARBAMOYLOXYMETHYL)-[1,3]DI- OXOLAN-4-YL]-2-OX- O-1,2-DIHYDRO-PYRI- MIDIN-4-YL}-CARBAMIC ACID BENZYL ESTER]
Factor (Resistance Factor = Ratio of dCK- on Wild-type CCRF-CEM): ˜2

CC(C)(C)OC(=O)N(CCCCC(C)(C)C(=O)Nc1ccn([C@@H]2CO[C@H](CO)O2)c(=O)n1)Cc1ccccc1 [Compound 125, Benzyl-{5-[1-(2-hydroxy-methyl-[1,3]di-oxolan-4-yl)-2-ox-o-1,2-dihydro-pyri-midin-4-ylcarba-moyl]-5-methyl-hexyl}-carbamic acid tert-butyl ester]
Factor (Resistance Factor = Ratio of dCK- on Wild-type CCRF-CEM): 97

COc1ccc(C(OC[C@H]2OC[C@@H](n3ccc(N)nc3=O)O2)(c2ccccc2)c2ccccc2)cc1 [Compound 134, 4-AMINO-1-{2-[(4-METH- OXY-PHENYL)-DI- PHENYL-METH- OXYMETHYL]-[1,3]DI- OXOLAN-4-YL}-1H-PYRI- MIDIN-2-ONE]
Factor (Resistance Factor = Ratio of dCK- on Wild-type CCRF-CEM): 3

O=c1nc(NC2Sc3ccccc3S2)ccn1[C@@H]1CO[C@H](CO)O1 [Compound 136, 4-(BENZO[1,3]DITHIOL-2-YL- AMINO)-1-(2-HYDROXY- METHYL-[1,3]DI- OXOLAN-4-YL)-1H!PYRI- MIDIN-2-ONE]
Factor (Resistance Factor = Ratio of dCK- on Wild-type CCRF-CEM): >25

COC(OC)(OC[C@H]1OC[C@@H](n2ccc(N)nc2=O)O1)c1ccccc1 [Compound 139, 4-AMINO-1-[2-(DI- METHOXY-PHENYL-METH- OXYMETHYL)-[1,3]DI- OXOLAN-4-YL]-1H-PYRI- MIDIN-2-ONE]
Factor (Resistance Factor = Ratio of dCK- on Wild-type CCRF-CEM): >250

CN(Cc1ccccc1)C(=O)OC[C@H]1OC[C@@H](n2ccc(N)nc2=O)O1 [Compound 140, BENZYL-METHYL-CARBAMIC ACID 4-(4-AMINO-2-OXO-2H-PYRI- MIDIN-1-YL)-[1,3]DI- OXOLAN-2-YLMETHYL ESTER]
Factor (Resistance Factor = Ratio of dCK- on Wild-type CCRF-CEM): >9

O=c1nc(NC2(c3ccccc3)c3ccccc3Oc3ccccc32)ccn1[C@@H]1CO[C@H](COC2(c3ccccc3)c3ccccc3Oc3ccccc32)O1 [Compound 144, 4-(9-PHENYL-9#H!-XAN- THEN-9-YLAMINO)-1-[2-(9-PHE- NYL-9#H!-XAN- THEN-9-YLOXYMETHYL)-[1,3]DI- OXOLAN-4-YL]-1#H!-PYRI- MIDIN-2-ONE]
Factor (Resistance Factor = Ratio of dCK- on Wild-type CCRF-CEM): 110

Nc1ccn([C@@H]2CO[C@H](COC(=S)Oc3ccccc3)O2)c(=O)n1 [Compound 147, THIOCARBONIC ACID O-[4(S)-(4′-A- MINO-2′-OXO-2H-PYRI- MIDIN-1′-YL)-[1,3]DI- OXOLAN-2(S)-YL- METHYL]ESTER O-PHENYL ESTER]
Factor (Resistance Factor = Ratio of dCK- on Wild-type CCRF-CEM): >4 000

CC(=O)OCC1OC2OC(C)(OC[C@H]3OC[C@@H](n4ccc(NC(=O)OCc5ccccc5)nc4=O)O3)OC2C(OC(C)=O)C1OC(C)=O (some centres unmarked) [Compound 148, Acetic acid 6-acetoxy-5-acetoxy-methyl-2-[4-(4-benzyl-oxycarbonylamino-2-ox-o-2H-pyrimidin-1-yl)-[1,3]di-oxolan-2-ylmeth-oxy]-2-methyl-tetra-hydro-[1,3]di-oxolo[4,5-b]py-ran-7-yl ester]
Factor (Resistance Factor = Ratio of dCK- on Wild-type CCRF-CEM): 4

CC(C(=O)OC[C@H]1OC[C@@H](n2ccc(N)nc2=O)O1)C(c1ccccc1)c1ccccc1 (stereo partly drawn) [Compound 157, (2S,4S)-(3″-DIPHENYL-2″-METHYL- PROPIOXYMETHYL)-4-CYTO- SIN-1′-YL-1,3-DI- OXOLANE]
Factor (Resistance Factor = Ratio of dCK- on Wild-type CCRF-CEM): > 8330

CCOC(OCC)(OC[C@H]1OC[C@@H](n2ccc(N)nc2=O)O1)c1ccccc1 [Compound 170, 4-AMINO-1-[2-(DIETHOXY-PHE- NYL-METHOXYMETHYL)-[1,3]DI- OXOLAN-4-YL]-1H-PYRI- MIDIN-2-ONE]
IC50 [1]: 210 nM
IC50 [2]: > 100000 nM
IC50 [3]: 490 nM
IC50 [4]: 630 nM
IC50 [5]: 1000 nM
Resistance Factor = Ratio of dCK- on Wild-type CCRF-CEM: >476

COC(OC)(OC)OC[C@H]1OC[C@@H](n2ccc(N)nc2=O)O1 [Compound 177, 4-AMINO-1-(2-TRI- METHOXYMETHOXYMETHYL-[1,3]DI- OXOLAN-4-YL)-1H-PYRI- MIDIN-2-ONE]
Resistance Factor = Ratio of dCK- on Wild-type CCRF-CEM: > 1050

O=C(Nc1ccn([C@@H]2CO[C@H](COC(=O)OCc3ccc([N+](=O)[O-])cc3)O2)c(=O)n1)OCc1ccc([N+](=O)[O-])cc1 [Compound 181, CARBONIC ACID 4-NITRO-BENZYL ESTER 4-[4-(4-NITRO-BENZYL- OXYCARBONYLAMINO)-2-OX- O-2H-PYRIMIDIN-1-YL]-[1,3]DI- OXOLAN-2-YLMETHYL ESTER]
IC50 [1]: 37 nM
IC50 [2]: > 100000 nM
IC50 [3]: 490 nM
IC50 [4]: 140 nM
IC50 [5]: 170 nM
Resistance Factor = Ratio of dCK- on Wild-type CCRF-CEM: >2700

Nc1ccn([C@@H]2CO[C@H](COC(=O)c3ccc(Cl)c(Cl)c3)O2)c(=O)n1 [Compound 187, 3,4-DICHLORO-BENZOIC ACID 4-(4-AMINO-2-OXO-2H-PYRI- MIDIN-1-YL)-[1,3]DI- OXOLAN-2-YL METHYL ESTER]
IC50 [4]: 1.4 nM
IC50 (read-out: IC50 (3H-TdR incorporation at 72 hr) CCRF-CEM 24 h, CCRF-CEM T-cell leukemia): 1.6 nM
IC50 [6]: 1.1 nM
IC50 [7]: 5.1 nM

Nc1ccn([C@@H]2CO[C@H](COC(=O)c3ccc(C(F)(F)F)cc3)O2)c(=O)n1 [Compound 189, 4-TRIFLUOROMETHYL-BENZOIC ACID 4-(4-A- MINO-2-OXO-2H-PYRI- MIDIN-1-YL)-[1,3]DI- OXOLAN-2-YL METHYL ESTER]
IC50 [3]: 3.3 nM
IC50 [4]: 1.2 nM
IC50 [6]: 0.68 nM
IC50 [7]: 3.7 nM

Nc1ccn([C@@H]2CO[C@H](COC(=O)c3ccccc3F)O2)c(=O)n1 [Compound 190, 2-FLUORO-BENZOIC ACID 4-(4-AMINO-2-OXO-2H-PYRI- MIDIN-1-YL)-[1,3]DI- OXOLAN-2-YL METHYL ESTER]
IC50 [2]: 9800 nM
IC50 [3]: 27 nM
IC50 [6]: 3.9 nM
IC50 [7]: 16 nM

CC(C)(C)OC(=O)NCCCCCC(=O)Nc1ccn([C@@H]2CO[C@H](CO)O2)c(=O)n1 [Compound 193, {5-[1-(2-HYDROXYMETHYL-[1,3]DI- OXOLAN-4-YL)-2-OX- O-1,2-DIHYDRO-PYRI- MIDIN-4-YLCARBA- MOYL]-PENTYL}-CARBAMIC ACID TERT-BUTYL ESTER]
Resistance Factor = Ratio of dCK- on Wild-type CCRF-CEM: > 1700

COc1ccc(C(OC)(OC)OC[C@H]2OC[C@@H](n3ccc(N)nc3=O)O2)cc1 [Compound 195, 4-AMINO-1-{2-[DI- METHOXY-(4-METHOXY-PHE- NYL)-METHOXYMETHYL]-[1,3]DI- OXOLAN-4-YL}-1#H!-PYRI- MIDIN-2-ONE]
Resistance Factor = Ratio of dCK- on Wild-type CCRF-CEM: > 1560

CCOC(OCC)(OCC)OC[C@H]1OC[C@@H](n2ccc(N)nc2=O)O1 [Compound 199, 4-Amino-1-(2-tri-ethoxymethoxymethyl-[1,3]di-oxolan-4-yl)-1H-pyri-midin-2-one]
Resistance Factor = Ratio of dCK- on Wild-type CCRF-CEM: > 10600

CC(=O)Oc1ccc(COC(=O)Nc2ccn([C@@H]3CO[C@H](COC(=O)OCc4ccc(OC(C)=O)cc4)O3)c(=O)n2)cc1 [Compound 202, Acetic acid 4-(1-{2-[4-(Acetyloxy)benzyloxycarbonyloxymethyl]-[1,3]dioxolan-4-yl}2-oxo-1,2-dihydropyrimidin-4-ylcarbamoyloxymethyl)-phenyl ester]
Resistance Factor = Ratio of dCK- on Wild-type CCRF-CEM: > 1000

Nc1ccn([C@@H]2CO[C@H](COC(=O)c3ccc([N+](=O)[O-])cc3)O2)c(=O)n1 [Compound 204, 4-NITRO-BENZOIC ACID 4-(4-A- MINO-2-OXO-2H-PYRI- MIDIN-1-YL)-[1,3]DI- OXOLAN-2-YL METHYL ESTER]
IC50 [1]: 12 nM
IC50 [2]: 19000 nM
IC50 [3]: 8.6 nM
IC50 [4]: 15 nM
IC50 [5]: 25 nM
Resistance Factor = Ratio of dCK- on Wild-type CCRF-CEM: 1 600

Nc1ccn([C@@H]2CO[C@H](COC(=O)c3ccccc3Cc3ccccc3)O2)c(=O)n1 [Compound 220, BIPHENYL-2-CARBOXYLIC ACID 4-(4-AMINO-2-OXO-2H-PYRI- MIDIN-1-YL)-[1,3]DI- OXOLAN-2-YL METHYL ESTER]
Resistance Factor = Ratio of dCK- on Wild-type CCRF-CEM: > 28600

Nc1ccn([C@@H]2CO[C@H](COC(=O)C3(c4ccccc4)CC3)O2)c(=O)n1 [Compound 223, 1-PHENYL-CYCLO- PROPANECARBOXYLIC ACID 4-(4-AMINO-2-OXO-2H-PYRI- MIDIN-1-YL)-[1,3]DI- OXOLAN-2-YL METHYL ESTER]
Resistance Factor = Ratio of dCK- on Wild-type CCRF-CEM: > 1610

CC(C)(C(=O)OC[C@H]1OC[C@@H](n2ccc(N)nc2=O)O1)c1ccccc1[N+](=O)[O-].Cl [Compound 224, 2-METHYL-2-(2-NITRO-PHE- NYL)-PROPIONIC ACID 4-(4-AMINO-2-OXO-2H-PYRI- MIDIN-1-YL)-[1,3]DI- OXOLAN-2-YLMETHYL ESTER HYDROCHLORIDE SALT]
IC50 [1]: 100 nM
IC50 [3]: 6900 nM
IC50 [4]: 5300 nM
IC50 [5]: 21000 nM
Resistance Factor = Ratio of dCK- on Wild-type CCRF-CEM: > 1000

CCCCC[C@H]1CC[C@H](C(=O)OC[C@H]2OC[C@@H](n3ccc(N)nc3=O)O2)CC1 [Compound 240, 4-PENTYL-CYCLO- HEXANECARBOXYLIC ACID 4-(4-AMINO-2-OXO-2H-PYRI- MIDIN-1-YL)-[1,3]DI- OXOLAN-2-YL METHYL ESTER]
Resistance Factor = Ratio of dCK- on Wild-type CCRF-CEM: ≧25 000
